Common to all, as to assay type: cell-based
Experiment [1] relates to lung carcinoma cell lines. The experiment can be described thus: Phase contrast cell morphology, lung carcinoma cell lines. The note with it: A549, Calu-1 and H165.0 cell lines, 2 μM for 48 hours vs 0.02% DMSO. The procedure: Cell lines were treated with 2 μM AZD0530 or 0.02% DMSO control for 48 hours. Scale bar is 100 μm. Thus, FIG. 8 provides an example of how the method as described herein may be validated by the use of various lung carcinoma cell lines.

The test system of experiment [2] is IGF-1-induced EMT in NBT-II cells. The experiment can be described thus: EMT spot migration assay, IGF-1-induced. The note with it: IGF-1-induced EMT (150 ng/ml IGF-1), CDR dose response from 6.67 μM, read-out: Cell Dispersion IC 50, IGF-1. How it is done:
(§1) NBT-II cells were stably transfected with mcherry-fluorescent H2B and maintained in DMEM supplemented with 10% fetal bovine serum (FBS, Thermo Scientific), 1 μg/ml puromycin (Sigma) and 100 units/ml penicillin-streptomycin (1× pen-strep, Invitrogen). Cells were grown to 80% confluency in tissue culture flasks prior to plating. Cells were trypsinized and concentrated to a density of 5×10^6 cell/ml in CO2-independent medium (Invitrogen) supplemented with 10% FBS. The cell suspension was then evenly dispersed into the wells of two columns of a 96-well V-bottom plate. Using a robotic liquid-handling station (Bravo, Agilent Technologies), 0.5 μl of cell suspension was transferred from the two columns of the cell suspension-loaded plate and deposited into the center of the wells of two columns of a 96-well clear bottom, black assay plate (Corning). This process was repeated six times so that all 96 wells of the assay plate were deposited with a cell suspension spot. The plate was then sealed to minimize evaporation of the cell suspension spots and transferred to a 37° C., 5% CO2 incubator to allow for cells to attach to the culture surface. After 1 hour, the plate was gently washed with medium once to remove unattached cells, refreshed with 100 μl of assay medium (DMEM supplemented with 10% FBS and 1× pen-strep), and then further incubated to allow for cell-cell contacts to establish in the cell colonies.
(§2) Four tiled, non-overlapping images were acquired around the center of each well, and were then stitched together during image analysis to generate a montage covering an area of 3.2 mm×3.2 mm. These images (T1) represent the initial state of the cell colonies before EMT induction.
(§3) After the T1 images were acquired, 1 μl of test compounds were transferred from compound stock plates and added to the assay plates. Appropriate negative controls (1 μl DMSO) and positive controls (1 μl 1.0 mM compound in DMSO) were also added into columns 1 and 12 of each assay plate, respectively. […] The cultures were then further incubated overnight.
(§4) The next day, 50 μl of growth factor-containing medium was added to each well of the assay-plates. For each of the growth factor-induced EMT spot migration assays, the final growth factor concentrations in each well is optimized to be 20 ng/ml EGF (Sigma), 4 ng/ml HGF (Calbiochem) or 150 ng/ml IGF-1 (R&D Systems), respectively. The cultures were then incubated for another 24 hours, to allow for EMT and sufficient cell motility/dispersion to occur in the cell colonies.
(§5) Finally, the cell colonies were imaged again using the microplate imager, as described above. These images (T2) represent the final state of the cell colonies after compound treatment and EMT induction. The acquired T1 and T2 image sets for each assay plate were then sent for image analysis.
(§6) The acquisition of each well was obtained by four adjacent field images with no interstice in between. Each field image was loaded and nuclei were initially segmented independently of other fields to prevent artifact at the field border. Nuclei segmentation was achieved by combining a wavelet transform which is robust to noise and unhomogeneous background, and a watershed algorithm based on intensities to split nuclei clusters. Mask of nuclei segmentation of the different fields were then stitched together in order to obtain a large segmentation of the whole well. Cell bodies were estimated by applying a morphological dilation on the nucleus segmentation using a disk of 30 pixels (48 μm) in diameter. In cells that are contiguous, such as in a cell colony, nuclei segmentation dilation will result in the formation of continuous region areas with surrounding cells which can then be identified as colonies.
(§7) Total cell number and spreading coefficient values for each well were then exported into an Excel sheet.

Experiment [3] deals with plakoglobin. As to the kind of experiment: Western blot of plakoglobin in cell lines. The note with it: 2 μM for 48 hours vs 0.02% DMSO. How it is done: FIG. 10 is a western blot image showing the increase in epithelial marker plakoglobin expression induced by AZD0530 in cell lines. Cell lines were treated with 2 μM AZD0530 or 0.02% DMSO control for 48 hours. Thus, FIG. 10 provides an example of possible downstream analysis that may be conducted subsequent to the detection of possible inhibitor by the method as described herein. In this figure, western blot analysis was used to validate the possible inhibitor detected by the method as described herein.
For western blot experiments with other cell lines, cells are treated either with AZD0530, such as 2 μM AZD0530 or DMSO, such as 0.02% DMSO control for 48 h. The samples are then processed using the same procedure as described above. The samples were probed with MMP-13, E-cadherin, plakoglobin (Cell Signaling), α-tubulin, and β-actin (Cell Signaling) antibodies.

Experiment [4] relates to HGF-induced EMT in NBT-II cells. As to the kind of experiment: EMT spot migration assay, HGF-induced. The note with it: HGF-induced EMT (4 ng/ml HGF), CDR dose response from 6.67 μM, read-out: Cell Dispersion IC 50, HGF. The procedure: as §1, §2, §3, §4, §5, §6, §7
The subject of experiment [5] is ovarian carcinoma cell lines. The experiment can be described thus: Phase contrast cell morphology, ovarian carcinoma cell lines. The note with it: A2780J, DOV13 and HEY cell lines, 2 μM for 48 hours vs 0.02% DMSO. How it is done:
Cell lines were treated with 2 μM AZD0530 or 0.02% DMSO control for 48 hours. Scale bar is 200 μm. Thus, FIG. 9 provides an example of how the method as described herein may be validated by the use of various ovarian carcinoma cell lines.

Structures are written as SMILES.

For `CN1CCN(CCOc2cc(OC3CCOCC3)c3c(Nc4c(Cl)ccc5c4OCO5)ncnc3c2)CC1` [AZD0530], the “Cell morphology (phase contrast)” value in experiment [1] and in experiment [5] was “compaction of cell morphology” in each case. Further, the results for the IC50 in experiment [2] and in experiment [4] were 240 nM and 510 nM, respectively. Moreover, the “Epithelial marker plakoglobin expression” value in experiment [3] is on record as “increase”.

Source of the values: patent publication US20150004620A1, “METHOD OR DEVICE FOR IDENTIFYING INHIBITOR OF EPITHELIAL MESENCHYMAL TRANSITION” (Agency for Science, Technology and Research, priority 2011, published 2015).
